Tests used:
Format in all cases: binding
[1] = Molar ratio titration against BCA copper(I) complex; details: linear decrease in absorbance at 562 nm
Procedure: In a quartz cuvette with 1 cm path length, BCA (9.0 μL) was diluted from a 50 mM aqueous stock solution (dissolved by addition of KOH) into 3.0 mL of buffer (10 mM PIPES, 0.1 M KCl, pH 7.0, 25° C.). Furthermore, Cu(II)SO4 (5.0 μL) from a 30 mM stock solution) and sodium ascorbate (7.5 μL from a 60 mM stock solution) were added. After equilibration for 10 minutes, a UV-vis spectrum was recorded, and the solution was titrated in 1-10 μL aliquots with a 3 mM stock solution of phenPS in DMF or naphPS in DMSO. For phenPS, the endpoint occurred at 1.04 molar equivalents on the basis of the mass employed for stock solution preparation, consistent with incomplete removal of the solvent of crystallization as observed by ^1H NMR. An independent molar ratio titration against [Cu(I)MCL-2]PF6 confirmed the stock concentration as 2.88 mM rather than 3.0 mM, and the plotted Cu(I)/phenPS ratio is adjusted accordingly.

[2] = Spectrophotometric Cu(I) competition titration against BCS; details: pH 7.0, 10 mM PIPES, 0.1 M KCl, 25° C.
Procedure: An aqueous sodium bathocuproine disulfonate (BCS, Acros Organics) stock solution (60 mM) was prepared calibrated by competition titration against MCL-1 as previously described (Bagchi, P., et al., J. Am. Chem. Soc., 135(49) (2013)). BCS (1.50 mM), sodium ascorbate (150 μM) and CuSO4 (30 μM) were sequentially added via aqueous stock solutions to 3 mL of buffer (10 mM PIPES, 0.1 M KCl, pH 7.0) in a 1-cm path length cuvette equipped with magnetic stirring, and a UV-Vis absorption spectrum was recorded from 650-380 nm. PhenPS was added in 5 μM aliquots from a 2.88 mM stock solution in DMF and an absorption spectrum was acquired after a 2 min equilibration period following each aliquot. The titration was conducted in duplicate, and each dataset was analyzed by nonlinear least squares fitting over the spectral range from 650-400 nm using the Specfit software package from Spectrum Software Associates. The stability constant for naphPS was determined similarly except that the ligand was delivered from a 3.0 mM stock solution in DMSO and a 5-minute equilibration period was required to obtain a stable spectrum after each aliquot.
An aqueous sodium bathocuproine disulfonate (BCS, Acros Organics) stock solution (60 mM) was prepared and calibrated by competition titration against MCL-1 as previously described (Bagchi, P., et al., J. Am. Chem. Soc., 135(49) (2013)). […]

[3] = Molar ratio titration with [Cu(I)MCL-2]PF6; details: 10 mM PIPES, 0.1 M KCl, pH 7; fit 250-400 nm
Procedure: In a quartz cuvette with 1 cm path-length, a 50 μM aqueous solution of phenPS was prepared by diluting the ligand from a stock solution (3 mM in DMF) into 2.95 mL of aqueous buffer (10 mM PIPES, 0.1 M KCl, pH 7) under rapid stirring. After recording a UV-vis absorption spectrum from 240 to 500 nm, [Cu(I)MCL-2]PF6 (3 mM stock solution in water) was added in 5 μM aliquots up to 95 μM. The absorption spectrum was recorded after a 1 min mixing period following each aliquot. To derive an accurate reference spectrum of Cu(I)-MCL-2 complex, a separate titration was conducted using pure DMF in place of the phenPS stock solution. The exact concentration of the phenPS stock solution was calibrated against [Cu(I)MCL-2]PF6 by plotting the apparent fractional saturation of the ligand, calculated as f=(A−A0)/(Asat−A0) where A corresponds to the absorbance at 290 nm and the subscripts 0 and sat refer to the spectra at 0 and 50 μM Cu(I), versus nominal molar equivalents of Cu(I) for the first 10 data points (0-0.9 molar equivalents). After concentration correction and subtraction of the DMF background absorption, non-linear least-squares fitting of the titration dataset over the wavelength range 250-400 nm was performed using a fixed log β11 of 21.2 for Cu(I)-phenPS to yield a log β12=31.86±0.07 (log K2=10.66±0.07) for Cu(I)2phenPS.

SMILES: CP(C)(=S)CP(CP(C)(C)=S)c1cccc2cccc(P(CP(C)(C)=S)CP(C)(C)=S)c12 [naphPS, 1,8-Bis(bis(dimethylphosphorothioylmethyl)phosphino)naphthalene]
- removal of Cu(I) from BCA complex [1]: quantitative removal of Cu(I)

SMILES: CP(C)(=S)CP(CP(C)(C)=S)c1ccccc1P(CP(C)(C)=S)CP(C)(C)=S [phenPS, 1,2-Bis(bis(dimethylphosphorothioylmethyl)phosphino)benzene]
- dissociation constant Kd of Cu(I) complex [2]: 0.6 zM
- removal of Cu(I) from BCA complex [1]: quantitative removal of Cu(I)
- log β12 for Cu(I)2phenPS [3]: 31.86±0.07

Source: patent publication US12630573B2, “High-affinity Cu(I) ligands and methods of use thereof” (GEORGIA TECH RESEARCH CORPORATION, priority 2019, dated 2026)
